Test results taken from patent US4018777A, “2-Substituted-5-alkyl resorcinols” (Abbott Laboratories, priority 1975, dated 1977).

Legend:
[1] = test system: acetic acid-induced writhing in mice; experiment: Analgesic activity, acetic acid writhing test (W); assay type: in vivo, mouse (Swiss-Webster female)
Description: (§1) The compounds of this invention are useful as analgesic agents, tranquilizers, sedative-hypnotics and anticonvulsants. The compounds are effective at dosages generally of from 1 to 10 mg./kg. of body weight daily. The analgesic activity was established in the standard mouse writhing test [Whittle, Brit. J. Pharmacol., 22, 296 (1964)] and confirmed in the hot plate assay [Woolfe, G. and McDonald, A. J., J. Pharmacol, Exper. Therap., 80, 300 (1944)] and the rat tail flick test.
In testing for the analgesic effect of the present compounds, the acetic acid writhing test was made as that described by [B. A. Whittle, Brit. J. Pharmacol 22, 246 (1964)]. Groups of Swiss-Webster female mice were given oral doses of the drug or control vehicle. The use of the intravenous dye was eliminated. One hour later they were given 0.4 ml. of 0.5% HOAc intraperitoneally. The number of writhes occurring in 20 minutes were counted starting 5 minutes after the injection of HOAc. Analgesic activity was reported as percent inhibition of writhing vs. controls or as ED50%.

[2] = test system: pain threshold to radiant heat on tail (rat tail flick); experiment: Analgesic activity, rat tail flick (RTF); assay type: in vivo, rat (male Sprague-Dawley); settings: oral, 2 hours after dosing
Description: as §1
In testing for analgesic activity by the rat tail flick method described by [F. E. D'Amour and D. L. Smith, J Pharmcol. Exp. Ther. 72, 74 (1941)], the method was modified as follows. Groups of male Sprague-Dawley rats weighing 140-170 g. are prepared by blackening their tails with India ink. Radiant heat is focused on their tails and adjusted so that the normal pain threshholds (time in seconds until an escape response or tail flick occurs) are in the range of 8 to 10 seconds. This is followed by oral administration of the test compound and hourly measurements of the animals' pain threshholds. The analgesic effects are listed in Table I as percent increase over initial pain threshhold 2 hours after dosing, or ED50's.

[3] = test system: methamphetamine (Desoxyn)-induced motor activity; experiment: Antipsychotic activity (Rat Desoxyn antagonism), motor activity; assay type: in vivo; settings: oral, one hour before test; for Antipsychotic activity (Rat Desoxyn antagonism): 10 mg./kg., methamphetamine 3 mg./kg. sc, vs. Desoxyn treated controls
Description: Antipsychotic Activity (Rat Desoxyn Antagonism)
Antipsychotic activity (Desoxyn antagonism) was evaluated in motor activity chambers equipped with photocells. Groups of nine rats were given the compound orally one hour before the test and then administered methamphetamine (Desoxyn) 3 mg./kg. sc, and placed in the chamber. Changes in motor activity were recorded as counts from the photocells and are compared to Desoxyn treated controls.

[4] = test system: audiogenic seizure in mice; experiment: Anticonvulsant activity, audiogenic seizure test (mouse); assay type: in vivo, mouse (male O'Grady strain); settings: 1 hr.; for Anticonvulsant activity, audiogenic seizure: % protection: 100 mg./kg.
Description: Audiogenic Seizure Test (Mouse)
Male O'Grady strain mice (14 to 16 g.) especially bred for susceptibility to audiogenic seizures were used as subjects. The audiogenic apparatus consisted of a wooden box enclosing a metal container with two doorbells attached to the upper section. […] [Ref: N. P. Plotnikoff and D. M. Green, J, Pharmacol. Exp. Ther., 119, 294 (1957)].

| Compound | Analgesic activity, RTF: percent increase over initial pain threshhold ([2]; 40 mg./kg.) | Antipsychotic activity (Rat Desoxyn antagonism) [3] | Anticonvulsant activity, audiogenic seizure: % protection [4] | further results |
| --- | --- | --- | --- | --- |
| CCCCCC(C)C(C)c1cc(OC(C)=O)c(-c2cnccc2C(C)C)c(OC(C)=O)c1 (stereo not drawn) [Compound (IX), 1,3-Diacetyl-2-[4-Isopropyl-3-Pyridyl]-5-(3-Methyl-2-Octyl)Resorcinol] | 20% |  |  | Analgesic activity, W(PO): percent inhibition of writhing vs. controls ([1]; 80 mg./kg.): 30% |
| C=C(C)c1ccncc1-c1c(OC(C)=O)cc(C(C)C(C)CCCCC)cc1OC(C)=O (stereo not drawn) [Compound (VII), 1,3-Diacetyl-2-[4-Isopropenyl-3-Pyridyl]-5-(3-Methyl-2-Octyl)Resorcinol] |  | 66% |  | Analgesic activity, RTF: percent increase over initial pain threshhold ([2]; 20 mg./kg.): 23%; ED50 ([4]; Mus musculus, protection, estimated (est.)): ~9 mg/kg |
| C=C(C)c1ccncc1-c1c(O)cc(C(C)C(C)CCCCC)cc1O (stereo not drawn) [Compound (VIII), 2-[4-Isopropenyl-3-Pyridyl]-5-(3-Methyl-2-Octyl) Resorcinol] | 59% |  | 100% | Antipsychotic activity (Rat Desoxyn antagonism), result in words ([3]; dose not stated): Inactive |
| CCCCCC(C)C(C)c1cc(O)c(-c2cnccc2C(C)C)c(O)c1 (stereo not drawn) [Compound (X), 2-[4-Isopropyl-3-pyridyl]-5-(3-methyl-2-octyl)resorcinol] | 53% |  | 60% | ED50 ([1]; Mus musculus, po): 44 mg/kg |
| C=C(C)c1ccc(C)cc1-c1c(OC(C)=O)cc(C(C)C(C)CCCCC)cc1OC(C)=O (stereo not drawn) [Compound (XI), 1,3-Diacetyl-2-[(2-isopropenyl-5-methyl)phenyl]-5-(3-methyl-2-octyl)resorcinol] |  | 55% | 70% | Analgesic activity, W(PO): percent inhibition of writhing vs. controls ([1]; 10-40 mg./kg.): 40-50% |
| CCCCCC(C)C(C)c1cc(O)c(-c2cc(C)ccc2C(C)C)c(O)c1 (stereo not drawn) [Compound (XII), 2-[(2-Isopropyl-5-methyl)phenyl]-5-(3-methyl-2-octyl)resorcinol] |  | 77% | 60% | Analgesic activity, W(PO): percent inhibition of writhing vs. controls ([1]; 40 mg./kg.): 47%; Analgesic activity, RTF: percent increase over initial pain threshhold ([2]; 22 mg./kg.): 45% |
